Laboratory results: publication PMC5095062, “The novel choline kinase inhibitor ICL-CCIC-0019 reprograms cellular metabolism and inhibits cancer cell growth” (Oncotarget, 2016)

Test system: AMPK
Assay: Kinase selectivity screen
Format: biochemical, rat
Method: The substantially less demanding synthesis of ICL-CCIC-0019 compared with MN58B bears additional advantages. […] This consequently diminished intracellular PCho concentration, and importantly, the incorporation of [^3H]-choline into lipids (Figure 1D). […] To assess kinase specificity, ICL-CCIC-0019 was tested against a panel of 131 human kinases (Figure 1E and Supplementary Table S1). […] Inhibition greater than 20% was attained for insulin-like growth factor 1 (IGF-1R, 35 ± 7% inhibition), mitogen-activated protein kinase-activated protein kinase 3 (MAPKAP-K3, 33 ± 6%), extracellular signal regulated kinase 8 (ERK8, 31 ± 4%), ribosomal S6 kinase 1 (RSK1, 22 ± 6%), and v-erb-a erythroblastic leukemia viral oncogene homolog 4 (HER4, 21 ± 7%).

SMILES: CN(C)c1cc[n+](CCCCCCCCCCCC[n+]2ccc(N(C)C)cc2)cc1 [ICL-CCIC-0019]
- % activity remaining (AMPK, 10 μM): 109%
- direct effect on AMPK activity (cell-free kinase assays): did not directly alter AMPK activity
